Assays:
OPN = OPN expression in primary bone marrow-derived macrophages (qICC, ELISA); format: cell-based, mouse; conditions: for increase in OPN production/expression (qICC): without Aβ, vs untreated MΦ^BM (FIG. 14D)
Method: For MΦ^BM cells, the cells in each well were lifted by 2 mM EDTA-PBS, collected in tubes, and centrifuged. Cell pellets were lysed and re-suspended in a cocktail of RIPA buffer supplemented with 1% protease inhibitors (Thermo Scientific), and stored at −80° C. until use.
To test amyloid-β phagocytosis by macrophage, in repeated experiments monocytes were isolated from the bone marrow of wild-type mice (n=18 mice) and differentiated into macro-phage by 7-day cultivation in complete RPMI-1640 medium (#21870; Life Technologies) with 10% serum and 20 ng/ml MCSF (#315-02; PeproTech). Bone marrow-derived macrophages (MΦBM) were generated from femurs and tibiae cultured for 6-7 days in complete RPMI 1640 medium (Life Technologies) with 10% FBS, 100 U/ml penicillin, 100 μg/ml streptomycin, 2 mM L-glutamine and 20 ng/ml MCSF (PeproTech). Primary cultures of macrophage were then plated at 1.2×10^5 cells per well (3-4 wells for each condition) in 24-well tissue-culture plates on glass cover-slips overnight. Next, macrophages were either treated with 30 μg/ml GA (Copaxone®; TEVA Neuroscience), Brefeldin A (BFA; Sigma, 1X), or 10 μM Minocycline (Sigma) for the duration of 1, 3, or 24 h, or not treated (control group). Before addition of fibrillar amyloid-β1-42, the cells were chilled in a 4° C. ice bath for 5 min; immediately after addition of the preformed fibrillar amyloid-β1-42 (100 nM), the plates were centrifuged at 515g in 25° C. followed by incubation at 37° C. for 30 or 60 min. The cells were then rinsed with amyloid-β-free medium to remove non-incorporated amyloid-β and later washed twice with PBS. Methanol (99.8%) at −20° C. for 20 min or 4% paraformaldehyde at room temperature for 12 min was used for fixation of the cells followed by repeated washes with PBS. For immunostaining, the cells were first stained using the mouse anti-human amyloid-β mAb clone 6E10 (1:100; SIG-39320; Covance), rat anti-CD68 mAb clone FA-11 (1:100; ab53444; Abcam), rat anti-CD36 mAb clone MF3 (1:200; ab80080; Abcam), rat anti-CD204 scavenger receptor type I/II (SCARA1) mAb (1:100; MCA1322; AbD Serotec), rabbit anti-CD163 pAb (1:100; orb13303; Biorbyt), and goat anti-MMP-9 pAb (1:100; AF909; R&D systems). Secondary polyclonal antibodies included donkey anti-mouse, anti-rat, anti-rabbit, and anti-goat conjugated with Cy2, Cy3 or Cy5 (1:200; Jackson ImmunoResearch Laboratories). The cells were mounted using ProLong® Gold with DAPI (Molecular Probes, Life Technologies). Several fields (minimum n=5 randomly selected per group) were obtained from each well using a Carl Zeiss Axio Imager Z1 ApoTome-equipped microscope (an average of 120 cells in each field). Images were obtained using the same exposure time in each occasion. The fluorescent signal and its total area were determined and quantified by the conversion of individual images to greyscale and standardizing to baseline using histogram-based thresholds with NIH ImageJ software. The ‘mean area per cell’ was a result of a numerical average of the individual cell's immunoreactive area per field. The ‘area/cell’ measures the total fluorescent signal (area) divided by the total number of cells (DAPI count) of the same field (image). For all experiments, the investigators were blinded to the treatment condition.
To investigate the impact of GA on OPN expression in macrophages, a series of in vitro studies using primary MΦ^BM was performed. BM was isolated from young WT donor mice, differentiated into mature macrophages, pretreated overnight with GA ([…]; GA-MΦ^BM) and exposed to pre-formed Aβ1-42 fibrils. […] Since MΦ^BM constitutively express and secrete OPN into the extracellular matrix, OPN production by inhibiting secretion with Brefeldin A (BFA) pretreatment was assessed (FIG. 14C). Indeed, newly generated OPN was trapped by BFA, increasing its intracellular accumulation. […] GA further elevated OPN production in BFA-pretreated MΦ^BM (FIG. 14C). […]

iNOS = iNOS expression in macrophages by quantitative ICC; format: cell-based, mouse; conditions: 24 hours treatment, then fAβ1-42 for 30 min; quantitative ICC (FIG. 16D)
Method: To test amyloid-β phagocytosis by macrophage, in repeated experiments monocytes were isolated from the bone marrow of wild-type mice (n=18 mice) and differentiated into macro-phage by 7-day cultivation in complete RPMI-1640 medium (#21870; Life Technologies) with 10% serum and 20 ng/ml MCSF (#315-02; PeproTech). Bone marrow-derived macrophages (MΦBM) were generated from femurs and tibiae cultured for 6-7 days in complete RPMI 1640 medium (Life Technologies) with 10% FBS, 100 U/ml penicillin, 100 μg/ml streptomycin, 2 mM L-glutamine and 20 ng/ml MCSF (PeproTech). Primary cultures of macrophage were then plated at 1.2×10^5 cells per well (3-4 wells for each condition) in 24-well tissue-culture plates on glass cover-slips overnight. […] The fluorescent signal and its total area were determined and quantified by the conversion of individual images to greyscale and standardizing to baseline using histogram-based thresholds with NIH ImageJ software. […]
The expression of inducible nitric oxide synthase (iNOS), a hallmark of the proinflammatory M1 macrophage phenotype, in different treatment groups was assessed next (FIG. 16C-16D). […] Quantitative ICC assays confirmed a significant ˜1.3-fold increase in iNOS expression by minocycline-treated macrophages, and a substantial 48% reduction in Aβ^1-42 phagocytosis. […]

glatiramer acetate [GA]
increase in OPN in GA-treated MΦ (OPN; FIG. 5D): 2 fold | increase of OPN expression in MΦ^BM (OPN; GA pretreated, 100 nM fibrillar Aβ1-42 for 30 min, qICC and ELISA): 2.3-2.7 fold | increased OPN levels in cell lysates (ELISA) (OPN; with BFA (FIG. 14E)): 1.4 fold | increase in OPN production/expression (qICC) (OPN; with BFA, GA overnight 30 µg/ml): 1.6 fold | increased OPN levels in cell lysates (ELISA) (OPN; without BFA (FIG. 14E)): 2.3 fold | increase in OPN production/expression (qICC) (OPN; without BFA, GA overnight): 2.5 fold | reduction of iNOS production (iNOS): 28%

Source: patent publication US11779600B2, “Methods of treating or preventing alzheimer's disease and associated conditions” (CEDARS-SINAI MEDICAL CENTER, priority 2016, dated 2023)
